The assay has as its target T1, HEK 293 GPR73 (prokineticin 1 receptor) expressing cells (Homo sapiens, UniProt Q8TCW9).
T1 construct: expressed in transfected cells; host or cells: HEK 293
Kind of assay: PK1 functional assay: screening for PK1 antagonists on the FLIPR (calcium fluorescence). The format is cell-based. Conditions: HEK 293 GPR73 cells; for inhibition at 10 µM: HEK293, compound at 10 μM, read-out: Ca^2+ Mobilization % Inh @10 μM; for inhibition at 10 µM / Ca^2+ Mobilization % Inh @10 μM: multiple values = repeat tests; for IC50: PK1 ligand at EC50, multiple values = repeat tests, read-out: Ca^2+ Mobilization IC50; for Ca^2+ Mobilization % Inh @10 μM: compound at 10 μM. The gist of the method: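 HEK 293 cells expressing GPR73 were loaded with Calcium Plus Dye for 30 min at 37 C, then read for calcium fluorescence on FLIPR. Values were baseline-subtracted and expressed as percent of maximal control; percent inhibition is 100 minus that, and IC50 was fitted from it.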

Several values for one entry are separate records, joined by “and”; a condition that tells them apart may be missing. Equal entries are not always repeated.

T1 sequence (Q8TCW9 whole entry): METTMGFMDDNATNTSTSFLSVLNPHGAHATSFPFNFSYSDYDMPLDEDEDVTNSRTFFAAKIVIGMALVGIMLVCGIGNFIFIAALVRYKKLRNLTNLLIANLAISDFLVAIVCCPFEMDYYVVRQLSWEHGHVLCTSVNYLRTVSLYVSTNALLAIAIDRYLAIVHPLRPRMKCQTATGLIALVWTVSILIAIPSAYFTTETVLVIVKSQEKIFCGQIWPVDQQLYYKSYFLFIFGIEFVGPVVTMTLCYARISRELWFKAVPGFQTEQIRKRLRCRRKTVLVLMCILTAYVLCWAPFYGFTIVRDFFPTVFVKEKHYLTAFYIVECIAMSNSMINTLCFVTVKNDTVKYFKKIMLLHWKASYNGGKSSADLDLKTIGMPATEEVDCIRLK

For `COc1ccc(Cn2c(NCCNC(=N)N3CCCCC3)nc(=O)n(Cc3ccc(F)cc3)c2=O)cc1` [Cpd 116], the inhibition at 10 µM was found to be 99% and the IC50 was 57 nM.

`COc1ccc(Cn2c(NCCNC(=N)N(C)c3ccccc3)nc(=O)n(Cc3ccc(F)cc3)c2=O)cc1` [Cpd 117]: the inhibition at 10 µM is 79% and the IC50 is 84 nM.

`COc1ccc(Cn2c(NCCN(C(=N)N)c3ccccc3F)nc(=O)n(Cc3ccc(F)cc3)c2=O)cc1` [Cpd 118, N-{2-[5-(4-Fluoro-benzyl)-1-(4-methoxy-benzyl)-4,6-dioxo-1,4,5,6-tetrahydro-[1,3,5]triazin-2-ylamino]-ethyl}-N-(2-fluoro-phenyl)-guanidine]: the IC50 was found to be 6 nM. The “Ca^2+ Mobilization % Inh @10 μM” value (10 µM) is 98% and 102%.

As to `COc1ccc(Cn2c(NCCNC(=N)Nc3ccc(F)cc3)nc(=O)n(Cc3ccc(F)cc3)c2=O)cc1` [Cpd 119, N-{2-[5-(4-Fluoro-benzyl)-1-(4-methoxy-benzyl)-4,6-dioxo-1,4,5,6-tetrahydro-[1,3,5]triazin-2-ylamino]-ethyl}-N′-(4-fluoro-phenyl)-guanidine], the inhibition at 10 µM stood at 102%; the IC50 is 6 nM and 12 nM. The “Ca^2+ Mobilization % Inh @10 μM” value (10 µM) is reported as 99%.

On to `COc1ccc(Cn2c(NCCNC(=N)Nc3ccc(C)cc3)nc(=O)n(Cc3ccc(F)cc3)c2=O)cc1` [Cpd 120], for which the inhibition at 10 µM worked out at 100%; the IC50 is 9 nM and 15 nM. The “Ca^2+ Mobilization % Inh @10 μM” value (10 µM) is reported as 102%.

On to `COc1ccc(Cn2c(NCCNC(=N)NC(C)(C)C)nc(=O)n(Cc3ccc(F)cc3)c2=O)cc1` [Cpd 121], for which the inhibition at 10 µM was determined as 101%; the IC50 is 20 nM and 33 nM. Moreover, the “Ca^2+ Mobilization % Inh @10 μM” value (10 µM) amounted to 98%.

Take `N=C(N)NCCNc1nc(=O)n(Cc2ccc(Cl)cc2)c(=O)n1Cc1ccc(N)cc1` [Cpd 122, N-{2-[1-(4-Amino-benzyl)-5-(4-chloro-benzyl)-4,6-dioxo-1,4,5,6-tetrahydro-[1,3,5]triazin-2-ylamino]-ethyl}-guanidine]: the inhibition at 10 µM came out at 78% and the IC50 worked out at 1080 nM.

For the compound `COc1ccc(Cn2c(NCCNC(=N)N)nc(=O)n(CC(C)(C)C)c2=O)cc1` [Cpd 123], the inhibition at 10 µM came to 34% and the IC50 is more than 10000 nM.

For the compound `COc1ccc(Cn2c(NCCNC(=N)N)nc(=O)n(CC3CCCC3)c2=O)cc1` [Cpd 124], the inhibition at 10 µM came to 74% and the IC50 came out at 1560 nM.

Consider `COc1ccc(Cn2c(NCCNC(=N)N)nc(=O)n(Cc3ccc(N)cc3)c2=O)cc1` [Cpd 125, N-{2-[5-(4-Amino-benzyl)-1-(4-methoxy-benzyl)-4,6-dioxo-1,4,5,6-tetrahydro-[1,3,5]triazin-2-ylamino]-ethyl}-guanidine], for which the inhibition at 10 µM was 83% and the IC50 was determined as 487 nM.

Consider `COc1ccc(Cn2c(NCCNC(=N)NC3C4CC5CC(C4)CC3C5)nc(=O)n(Cc3ccc(F)cc3)c2=O)cc1` (centres unmarked) [Cpd 126], for which the inhibition at 10 µM stood at 95% and the IC50 turned out to be 115 nM.

Turning to `COc1ccc(Cn2c(NCCNC(=N)Nc3ccc(OC(F)(F)F)cc3)nc(=O)n(Cc3ccc(F)cc3)c2=O)cc1` [Cpd 127], the inhibition at 10 µM amounted to 100% and the IC50 was 58 nM.

Take `COc1ccc(Cn2c(NCCNC(=N)Nc3ccc(O)cc3)nc(=O)n(Cc3ccc(F)cc3)c2=O)cc1` [Cpd 128]: the inhibition at 10 µM came to 100% and the IC50 was 40 nM.

For the compound `NC(N)=NCCNc1nc(=O)n(Cc2ccc(Cl)cc2)c(=O)n1Cc1ccccc1` [Cpd 129], the inhibition at 10 µM is 64% and the IC50 was 4780 nM.

In the case of `N=C(N)NCCNc1nc(=O)n(Cc2ccc(Cl)cc2)c(=O)n1Cc1ccoc1` [Cpd 130], the inhibition at 10 µM was found to be 71% and the IC50 was determined as 1870 nM.

`COc1ccc(Cn2c(NC3CCC(NC(=N)N)CC3)nc(=O)n(Cc3ccc(F)cc3)c2=O)cc1` (centres unmarked) [Cpd 131]: the IC50 was more than 10000 nM and the “Ca^2+ Mobilization % Inh @10 μM” value stood at 32%.

Consider `COc1ccc(Cn2c(NCC(=O)NC(=N)NC(=O)OC(C)(C)C)nc(=O)n(Cc3ccc(F)cc3)c2=O)cc1` [Cpd 132, N-{2-[5-(4-fluoro-benzyl)-1-(4-methoxy-benzyl)-4,6-dioxo-1,4,5,6-tetrahydro-[1,3,5]triazin-2-ylamino]-acetyl}-N′-boc-guanidine], for which the inhibition at 10 µM came to 54% and the IC50 is 8500 nM.

With `COc1ccc(Cn2c(NCCNC(=N)Nc3ccccc3SC)nc(=O)n(Cc3ccc(F)cc3)c2=O)cc1` [Cpd 133], the inhibition at 10 µM came out at 93% and the IC50 worked out at 200 nM.

For the compound `COc1ccc(Cn2c(NCCN(C(=N)N)C(=O)c3ccccc3)nc(=O)n(Cc3ccc(F)cc3)c2=O)cc1` [Cpd 134, N-Benzoyl-N-{2-[5-(4-fluoro-benzyl)-1-(4-methoxy-benzyl)-4,6-dioxo-1,4,5,6-tetrahydro-[1,3,5]triazin-2-ylamino]-ethyl}-guanidine], the IC50 was 19 nM and 28 nM; the “Ca^2+ Mobilization % Inh @10 μM” value was 97, 97%.

With `COc1ccc(Cn2c(NCCNC(=N)Nc3ncccn3)nc(=O)n(Cc3ccc(F)cc3)c2=O)cc1` [Cpd 135], the inhibition at 10 µM is 100%; the IC50 was 13 nM and 24 nM. Also, the “Ca^2+ Mobilization % Inh @10 μM” value (10 µM) is listed as 94%.

Regarding `COc1ccc(Cn2c(N[C@@H](C)[C@H](C)NC(=N)N)nc(=O)n(Cc3ccc(F)cc3)c2=O)cc1` [Cpd 136], the inhibition at 10 µM came to 50% and the IC50 is more than 10000 nM.

For `COc1ccc(Cn2c(N[C@H](C)[C@@H](C)NC(=N)N)nc(=O)n(Cc3ccc(F)cc3)c2=O)cc1` [Cpd 137], the inhibition at 10 µM was found to be 101%; the IC50 is 15 nM and 31 nM.

With `COc1ccc(Cn2c(NCCNC(=N)Nc3nc4c(c(C(F)(F)F)n3)CCCC4)nc(=O)n(Cc3ccc(F)cc3)c2=O)cc1` [Cpd 138], the inhibition at 10 µM stood at 70% and the IC50 worked out at 1340 nM.

With `COc1ccc(Cn2c(NCCNC(=N)Nc3ccc(C)cn3)nc(=O)n(Cc3ccc(F)cc3)c2=O)cc1` [Cpd 139], the inhibition at 10 µM is 95% and the IC50 was 18 nM.

On to `COc1ccc(Cn2c(NCCNC(=N)N3CCOCC3)nc(=O)n(Cc3ccc(F)cc3)c2=O)cc1` [Cpd 140], for which the inhibition at 10 µM came to 89% and the half-maximal inhibitory concentration (IC50) was 455 nM.

`N=C(N)NCCNc1nc(=O)n(Cc2ccc(Cl)cc2)c(=O)n1Cc1ccco1` [Cpd 141]: the inhibition at 10 µM was 73% and the IC50 was found to be 1840 nM.

Take `COc1ccc(Cn2c(NCCCCCNC(=N)N)nc(=O)n(Cc3ccc(Cl)cc3)c2=O)cc1` [Cpd 142]: the inhibition at 10 µM came to 90% and the IC50 was found to be 323 nM.

Consider `COc1ccc(Cn2c(=O)nc(NCCNC(=N)N)n(Cc3ccc(O)cc3)c2=O)cc1` [Cpd 143, N-{2-[1-(4-Hydroxy-benzyl)-5-(4-methoxy-benzyl)-4,6-dioxo-1,4,5,6-tetrahydro-[1,3,5]triazin-2-ylamino]-ethyl}-guanidine], for which the inhibition at 10 µM is 100%; the IC50 is 6 nM and 27 nM.

In the case of `COc1ccc(Cn2c(NCCCCCCNC(=N)N)nc(=O)n(Cc3ccc(Cl)cc3)c2=O)cc1` [Cpd 144], the inhibition at 10 µM was 77% and the IC50 worked out at 1330 nM.

Take `COc1ccc(CCn2c(=O)nc(NCCNC(=N)N)n(Cc3ccc(OC)cc3)c2=O)cc1` [Cpd 145]: the inhibition at 10 µM turned out to be 86% and the IC50 was determined as 461 nM.

In the case of `COc1ccc(CCCn2c(=O)nc(NCCNC(=N)N)n(Cc3ccc(OC)cc3)c2=O)cc1` [Cpd 146], the inhibition at 10 µM came to 87% and the IC50 worked out at 670 nM.

Regarding `COC(=O)c1ccc(Cn2c(NCCNC(=N)N)nc(=O)n(Cc3ccc(Cl)c(Cl)c3)c2=O)cc1` [Cpd 147], the inhibition at 10 µM was found to be 82%.

Turning to `CCCCOc1ccc(Cn2c(NCCNC(=N)N)nc(=O)n(Cc3ccccc3)c2=O)cc1` [Cpd 148], the inhibition at 10 µM was 41% and the half-maximal inhibitory concentration (IC50) is more than 10000 nM.

For the compound `NC(N)=NCCNc1nc(=O)n(Cc2ccc(Cl)cc2)c(=O)n1Cc1ccccc1` [Cpd 149], the IC50 was 4780 nM and the “Ca^2+ Mobilization % Inh @10 μM” value was found to be 64%.

On to `N=C(N)NCCNc1nc(=O)n(Cc2ccc(Cl)cc2)c(=O)n1Cc1ccoc1` [Cpd 150], for which the IC50 came to 1870 nM and the “Ca^2+ Mobilization % Inh @10 μM” value was 71%.

Take `COc1ccc(Cn2c(NCCNC(=N)NC(C)=O)nc(=O)n(Cc3ccc(F)cc3)c2=O)cc1` [Cpd 151]: the inhibition at 10 µM was determined as 99% and the IC50 worked out at 3 nM.

In the case of `C=CCNC(=N)NCCNc1nc(=O)n(Cc2ccc(F)cc2)c(=O)n1Cc1ccc(OC)cc1` [Cpd 152], the inhibition at 10 µM is 97% and the IC50 amounted to 9 nM.

In the case of `COc1ccc(Cn2c(NCCNC(=N)NC(C)C)nc(=O)n(Cc3ccc(F)cc3)c2=O)cc1` [Cpd 153], the inhibition at 10 µM is 99% and the IC50 was found to be 13 nM.

For `CCCNC(=N)NCCNc1nc(=O)n(Cc2ccc(F)cc2)c(=O)n1Cc1ccc(OC)cc1` [Cpd 154], the inhibition at 10 µM came out at 99%; the IC50 was 3 nM and 6 nM. In addition, for the setting “10 µM”, the “Ca^2+ Mobilization % Inh @10 μM” value is listed as 98%.

With `CCNC(=N)NCCNc1nc(=O)n(Cc2ccc(F)cc2)c(=O)n1Cc1ccc(OC)cc1` [Cpd 155], the inhibition at 10 µM was 99% and the IC50 worked out at 16 nM.

`CNC(=N)NCCNc1nc(=O)n(Cc2ccc(F)cc2)c(=O)n1Cc1ccc(OC)cc1` [Cpd 156]: the inhibition at 10 µM was determined as 102%; the IC50 is 4 nM and 7 nM. Further, the “Ca^2+ Mobilization % Inh @10 μM” value (10 µM) amounted to 99%.

In the case of `COc1ccc(Cn2c(C(=O)NCCNC(=N)N)cc(=O)n(Cc3ccc(OC)cc3)c2=O)cc1` [Cpd 157, 1,3-Bis-(4-methoxy-benzyl)-2,6-dioxo-1,2,3,6-tetrahydro-pyrimidine-4-carboxylic acid (2-guanidino-ethyl)-amide], the inhibition at 10 µM worked out at 92% and the IC50 was found to be 197 nM.

What is called IC50 is the concentration that inhibits the measured activity by half.

The record behind these values is patent publication US20080045535A1, “Prokineticin 2 receptor antagonists” (priority 2005, published 2008).
